Results: ChEMBL document CHEMBL1139102, “Comparison of N,N'-diarylsquaramides and N,N'-diarylureas as antagonists of the CXCR2 chemokine receptor” (Bioorg Med Chem Lett, 2007)
Values after ≈ are worked out from the molar mass of the structure shown. Values joined by “and” are separate entries in the source; they are usually repeats but may differ in a detail not shown here. Equal values may be shown once.

Experiments:
[1] = molecular target: T1, C-X-C chemokine receptor type 2 (Homo sapiens, UniProt P25025); experiment: Displacement of [125I]IL8 from human recombinant CXCR2 expressed in CHO cells; assay type: cell-based
T1 sequence (P25025 whole entry): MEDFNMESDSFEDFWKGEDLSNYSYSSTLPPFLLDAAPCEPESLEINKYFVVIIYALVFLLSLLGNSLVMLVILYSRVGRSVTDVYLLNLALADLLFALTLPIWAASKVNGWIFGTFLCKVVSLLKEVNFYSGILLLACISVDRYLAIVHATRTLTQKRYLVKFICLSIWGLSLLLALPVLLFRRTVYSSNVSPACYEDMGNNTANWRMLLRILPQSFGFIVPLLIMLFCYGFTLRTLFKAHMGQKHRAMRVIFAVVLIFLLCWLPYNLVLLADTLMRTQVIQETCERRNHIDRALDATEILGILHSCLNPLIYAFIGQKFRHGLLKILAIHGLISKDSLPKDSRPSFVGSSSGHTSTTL

[2] = Dissociation constant, pKa at pH 7.4; assay type: physicochemical
[3] = Aqueous solubility in phosphate buffer at pH 7.4; assay type: physicochemical
[4] = Clearance in Sprague-Dawley rat at 4 umol/kg, iv and 8 umol/kg, po; assay type: ADME, organism-based; conditions: in vivo
[5] = Volume of distribution at steady state in Sprague-Dawley rat at 4 umol/kg, iv and 8 umol/kg, po; assay type: ADME, organism-based; conditions: in vivo, read-out: Vdss
in vivo = conditions: Sprague-Dawley, rat, po, 8 umol/kg

Structure (SMILES) | IC50 [1] | solubility [3] | further results
N#Cc1ccc(Nc2c(O)c(=O)/c2=N\c2ccccc2)c(O)c1 | 15 nM |  | pKa [2]: 7.09
O=c1c(Nc2ccccc2)c(Nc2cc(Cl)c([N+](=O)[O-])cc2O)c1=O | 52 nM |  | 
O=c1c(Nc2ccccc2)c(Nc2cc(Cl)ccc2O)c1=O | 54 nM |  | 
NC(=O)c1c(Cl)ccc(Nc2c(Nc3ccccc3)c(=O)c2=O)c1O | 14 nM | 88 µM (≈ 31.5 µg/mL) | 
CCCc1ccccc1Nc1c(Nc2ccc(Cl)c(S(=O)(=O)N3CCN(CC)CC3)c2O)c(=O)c1=O.O=C(O)C(F)(F)F | 8 nM | 78 µM | clearance [4]: 7 mL/min/kg; Vd [5]: 0.89 L/kg
O=c1c(Nc2ccccc2)c(Nc2c(O)cccc2[N+](=O)[O-])c1=O | 358 nM |  | 
N#Cc1ccc(Nc2c(Nc3ccccc3Br)c(=O)c2=O)c(O)c1 | 15 nM and 36 nM | 14 µM (≈ 5.38 µg/mL) | clearance [4]: 15 mL/min/kg; Vd [5]: 0.15 L/kg
O=c1c(Nc2ccc([N+](=O)[O-])cc2O)c(Nc2ccccc2Br)c1=O | 37 nM |  | 
N#Cc1cccc(NC(=O)Nc2ccccc2)c1O | 276 nM |  | 
O=C(Nc1ccccc1O)Nc1ccccc1Br | > 9000 nM |  | 
Cc1ccccc1Nc1c(Nc2ccc(C)c(S(=O)(=O)N(C)C)c2O)c(=O)c1=O | 15 nM | 10 µM (≈ 4.15 µg/mL) | clearance [4]: 4 mL/min/kg; Vd [5]: 0.25 L/kg
CN1CCN(S(=O)(=O)c2c(F)ccc(Nc3c(Nc4ccccc4Br)c(=O)c3=O)c2O)CC1.O=C(O)C(F)(F)F | 13 nM | 44 µM | 
CN1CCCN(C(=O)c2cccc(Nc3c(Nc4ccccc4)c(=O)c3=O)c2O)CC1.O=C(O)C(F)(F)F | 44 nM | 178 µM | clearance [4]: 15 mL/min/kg; Vd [5]: 0.33 L/kg
N#Cc1cccc(Nc2c(Nc3ccccc3)c(=O)c2=O)c1O | 32 nM |  | 
Cc1ccc(NC(=O)Nc2ccccc2)c(O)c1 | 25000 nM |  | 
Cc1ccc(O)c(NC(=O)Nc2ccccc2)c1 | > 30000 nM |  | 
Cc1cccc(O)c1NC(=O)Nc1ccccc1 | > 30000 nM |  | 
O=C(Nc1ccccc1)Nc1c(O)cccc1[N+](=O)[O-] | > 30000 nM |  | 

Structure (SMILES) | IC50 [1] | solubility [3] | further results
O=c1c(O)c(Nc2ccc([N+](=O)[O-])cc2O)/c1=N/c1ccccc1 | 22 nM |  | 
O=c1c(Nc2ccccc2O)c(Nc2ccccc2Br)c1=O | 51 nM |  | 
COCCNS(=O)(=O)c1c(Cl)ccc(Nc2c(Nc3ccccc3)c(=O)c2=O)c1O | 8 nM | 73 µM (≈ 33 µg/mL) | clearance [4]: 0.6 mL/min/kg; Vd [5]: 0.14 L/kg; bioavailability (in vivo): 23%
Cc1ccc(Nc2c(Nc3ccccc3)c(=O)c2=O)c(O)c1 | 205 nM |  | 
CN1CCN(C(=O)c2cccc(Nc3c(Nc4ccccc4)c(=O)c3=O)c2O)CC1.O=C(O)C(F)(F)F | 27 nM | 121 µM | 
O=C(Nc1ccccc1)Nc1cc(Cl)ccc1O | > 30000 nM |  | 
Cc1ccc(O)c(Nc2c(Nc3ccccc3)c(=O)c2=O)c1 | 308 nM |  | 
Cc1cccc(O)c1Nc1c(Nc2ccccc2)c(=O)c1=O | 1720 nM |  | 
O=C(c1cccc(Nc2c(Nc3ccccc3C(F)(F)F)c(=O)c2=O)c1O)N1CCCC1 |  | 86 µM (≈ 38.3 µg/mL) | clearance [4]: 45 mL/min/kg; Vd [5]: 0.66 L/kg
O=C(c1c(Cl)ccc(Nc2c(Nc3ccccc3Br)c(=O)c2=O)c1O)N1CCCC1 | 28 nM | 143 µM (≈ 70.2 µg/mL) | 
O=c1c(O)c(Nc2ccccc2)/c1=N/c1ccccc1O | 235 nM |  | pKa [2]: 8.6
O=C(Nc1ccccc1)Nc1cc(Cl)c([N+](=O)[O-])cc1O | 950 nM |  | 
O=c1c(Nc2ccc(Cl)cc2O)c(Nc2ccccc2Br)c1=O | 32 nM | 3 µM (≈ 1.18 µg/mL) | 
CN1CCCN(S(=O)(=O)c2c(Cl)ccc(Nc3c(Nc4ccccc4Cl)c(=O)c3=O)c2O)CC1.Cl | 20 nM | 160 µM | clearance [4]: 4 mL/min/kg; Vd [5]: 0.31 L/kg
Cl.O=c1c(Nc2ccccc2)c(Nc2ccc(Cl)c(S(=O)(=O)N3CCC(N4CCCCC4)CC3)c2O)c1=O |  | 7 µM | clearance [4]: 1.2 mL/min/kg; Vd [5]: 0.24 L/kg; bioavailability (in vivo): 5%
CN1CCCN(S(=O)(=O)c2c(Cl)ccc(Nc3c(Nc4ccccc4Br)c(=O)c3=O)c2O)CC1.Cl | 10 nM | 138 µM | clearance [4]: 4 mL/min/kg; Vd [5]: 0.24 L/kg
O=C(Nc1ccccc1)Nc1ccccc1O | > 30000 nM |  | 
